Several values for one entry are separate records, joined by “and”; a condition that tells them apart may be missing. Equal values may be shown once.
Key:
[1] = molecular target: T1, N-demethylase (Ndm: NdmA and NdmB subunits) (Pseudomonas putida, UniProt H9N289+H9N290); test: Methylxanthine N-demethylase activity assay with purified Ndm plus partially purified Ccr; assay type: biochemical, Pseudomonas putida CBB5; conditions: for product formed from paraxanthine: 7.4 mU / 7.4 units of Ndm, 90 minutes; for Products identified: same products at 500 and 200 μM substrate; for Relative N-demethylase activity: relative to paraxanthine
T1 construct: lane 3, natural Ndm purified from P. putida CBB5; made in house; host or cells: purified from the natural strain Pseudomonas putida CBB5 (DEAE, Phenyl and Q Sepharose); not recombinant
T1 sequence (H9N289 1-351): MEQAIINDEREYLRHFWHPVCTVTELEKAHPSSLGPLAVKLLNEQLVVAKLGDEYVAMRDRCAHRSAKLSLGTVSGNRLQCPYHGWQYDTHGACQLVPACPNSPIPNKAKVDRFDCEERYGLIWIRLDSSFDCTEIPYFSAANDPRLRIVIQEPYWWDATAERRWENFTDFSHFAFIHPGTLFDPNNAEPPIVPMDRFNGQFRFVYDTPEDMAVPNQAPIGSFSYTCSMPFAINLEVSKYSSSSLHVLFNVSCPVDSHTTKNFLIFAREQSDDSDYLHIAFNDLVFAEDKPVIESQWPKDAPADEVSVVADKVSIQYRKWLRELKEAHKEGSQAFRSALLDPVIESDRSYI
T1 sequence (H9N290 1-355): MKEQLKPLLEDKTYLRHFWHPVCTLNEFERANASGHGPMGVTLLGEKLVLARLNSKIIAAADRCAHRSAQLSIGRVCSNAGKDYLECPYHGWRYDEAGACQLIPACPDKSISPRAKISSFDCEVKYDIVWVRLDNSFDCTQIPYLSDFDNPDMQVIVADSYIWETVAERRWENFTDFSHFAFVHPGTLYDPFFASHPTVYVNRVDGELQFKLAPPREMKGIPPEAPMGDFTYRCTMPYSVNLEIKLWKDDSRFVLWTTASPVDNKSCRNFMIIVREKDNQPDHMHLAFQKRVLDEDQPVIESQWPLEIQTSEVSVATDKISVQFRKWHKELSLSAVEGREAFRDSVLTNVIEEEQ
Method: Methylxanthine N-demethylase activity assay contained, in 1-mL total volume, 0.5 mM methylxanthine, 1 mM NADH, 50 μM Fe(NH4)2(SO4)2, and an appropriate amount of Ndm (0.08-7.5 mg protein, depending on purity of the protein) in 50 mM KPi buffer. Approximately 4 U of partially purified Ccr was added to reaction mixture when assaying Ndm in Phenyl Sepharose and Q Sepharose eluant-fractions (Ccr was not added to the enzyme reaction mixture when assaying Ndm activity in DEAE Sepharose eluant-fractions because Ccr co-eluted with Ndm). The reaction mixture was incubated at 30° C. with 300 rpm shaking on an incubating microplate shaker (VWR). Periodically, a small aliquot was sampled from the reaction mixture and mixed with equal volume of acetonitrile for quantifying concentrations of methylxanthines and N-demethylated products by HPLC. One unit of N-demethylase activity was defined as the consumption of one μmole methylxanthine per minute. When Ndm was coupled with the reductase and ferredoxin components of naphthalene dioxygenase of Pseudomonas sp. strain 9816 (Haigler & Gibson, 1990a; Haigler & Gibson, 1990b), 30 and 100 μg of the respective proteins were used. Spinach ferredoxin reductase and ferredoxin were also substituted for Ccr as described by Subramanian et al. (1979).
Determination of Kinetic Parameters. Apparent kinetic parameters of Ndm were determined by measuring the initial rate of disappearance (vo) of paraxanthine or 7-methylxanthine in 50 mM KPi buffer (pH 7.5) at 30° C. The paraxanthine and 7-methylxanthine concentrations ([S]) used in these experiments were from 20 to 500 μM. Substrates were incubated with Ndm and Ccr under standard conditions for 15 minutes. At 1, 5, 10, and 15 minutes, samples were removed from the reaction mixtures to quantitate substrate concentrations by HPLC. Plots of substrate concentrations against time were used to determine the initial rates of disappearance of substrates which were linear over 15 minutes. The apparent kinetic parameters were determined from Michaelis-Menten plots of Vo against [S] fitted with the equation
Determination of Oxygen Requirement. Oxygen consumption by Ndm during N-demethylation of paraxanthine was determined in a closed reaction vessel equipped with a Clarke-type oxygen electrode (Digitial Modell 0, Rank Brothers Ltd., Cambridge, England). The electrode was calibrated by using glucose oxidase (Sigma) and glucose for consumption of oxygen. Ndm activity assay was performed at 30° C. in a total volume of 1 ml of air-saturated 50 mM KPi buffer (pH 7.5) with 100 μM paraxanthine, 200 μM NADH, 50 μM Fe(NH4)2(SO4)2, 0.2 mg purified Ndm, and 4 U partially purified Ccr. The reaction was initiated by adding Ndm and partially purified Ccr after equilibration of all other reaction components for 3.3 minutes. After 13 minutes, a 100-μL aliquot was withdrawn from the reaction, immediately mixed with equal volume of acetonitrile to stop the enzyme reaction, and analyzed for N-demethylation product by HPLC. Background oxygen consumption, possibly due to NADH oxidase enzyme activity in the partially purified Ccr, was quantitated in control reactions containing all reaction components except paraxanthine.
Formaldehyde Determination. […] Twenty μL Nash reagent was added to 50 μl Ndm reaction sample plus 50 μl acetonitrile. This mixture was incubated at 51° C. for 12 minutes.

[2] = molecular target: T2, NdmA-His6 (Pseudomonas putida, UniProt H9N289); test: Methylxanthine N-demethylase assay and kinetics, NdmA-His6 with His6-NdmD; assay type: biochemical, Pseudomonas putida CBB5
T2 construct: made in house; host or cells: E. coli BL21(DE3)
T2 sequence (H9N289 1-351): T1 sequence (H9N289 1-351)
Method: (§1) Methylxanthine N-demethylase activity assay contained, in 1-ml total volume, 0.5 mM methylxanthine, 1 mM NADH, 50 μM Fe(NH4)2(SO4)2, and an appropriate amount of NdmA-His6 or NdmB-His6 (7.4 μg-2.5 mg protein depending on substrate specificity) in 50 mM KPi buffer (pH 7.5). Approximately 4 U of partially purified reductase, prepared as described previously (Summers et al., 2011) or 59 U of purified His6-NdmD was added to reaction mixture. Catalase from bovine liver (4,000 U) was also added to reactions containing His6-NdmD. The reaction mixture was incubated at 30° C. with 300 rpm shaking on an incubating microplate shaker (VWR, Radnor, Pa.). Periodically, a small aliquot was sampled from the reaction mixture and mixed with equal volume of acetonitrile for quantifying concentrations of methylxanthines and N-demethylated products by HPLC. One unit of N-demethylase activity was defined as the consumption of one […] methylxanthine per minute.
(§2) Apparent kinetic parameters of NdmA-His6 and NdmB-His6 were determined by measuring the initial rate of disappearance (vo) of methylxanthines in 50 mM KPi buffer (pH 7.5) at 30° C. The initial substrate concentrations (ESI) used in these experiments were from 25 to 500 μM. Substrates were incubated with His6-NdmD plus either NdmA-His6 or NdmB-His6 under standard conditions for 15 minutes. At 1, 5, 10, and 15 minutes, samples were removed from the reaction mixtures to quantitate substrate concentrations by HPLC. Plots of substrate concentrations against time were used to determine the initial rates of disappearance of substrates which were linear over 15 minutes. The apparent kinetic parameters were determined from Michaelis-Menten plots of vo against [S] fitted with the equation

[3] = molecular target: T3, NdmB-His6 (Pseudomonas putida, UniProt H9N290); test: Methylxanthine N-demethylase assay and kinetics, NdmB-His6 with His6-NdmD; assay type: biochemical, Pseudomonas putida CBB5
T3 construct: made in house; host or cells: E. coli BL21(DE3)
T3 sequence (H9N290 1-355): T1 sequence (H9N290 1-355)
Method: as §1, §2

[4] = molecular target: His6-NdmD (Pseudomonas putida, UniProt H9N291); test: N-demethylase activity of purified His6-NdmD alone; assay type: biochemical, Pseudomonas putida CBB5
His6-NdmD, sequence (H9N291 1-588 with tags or gaps): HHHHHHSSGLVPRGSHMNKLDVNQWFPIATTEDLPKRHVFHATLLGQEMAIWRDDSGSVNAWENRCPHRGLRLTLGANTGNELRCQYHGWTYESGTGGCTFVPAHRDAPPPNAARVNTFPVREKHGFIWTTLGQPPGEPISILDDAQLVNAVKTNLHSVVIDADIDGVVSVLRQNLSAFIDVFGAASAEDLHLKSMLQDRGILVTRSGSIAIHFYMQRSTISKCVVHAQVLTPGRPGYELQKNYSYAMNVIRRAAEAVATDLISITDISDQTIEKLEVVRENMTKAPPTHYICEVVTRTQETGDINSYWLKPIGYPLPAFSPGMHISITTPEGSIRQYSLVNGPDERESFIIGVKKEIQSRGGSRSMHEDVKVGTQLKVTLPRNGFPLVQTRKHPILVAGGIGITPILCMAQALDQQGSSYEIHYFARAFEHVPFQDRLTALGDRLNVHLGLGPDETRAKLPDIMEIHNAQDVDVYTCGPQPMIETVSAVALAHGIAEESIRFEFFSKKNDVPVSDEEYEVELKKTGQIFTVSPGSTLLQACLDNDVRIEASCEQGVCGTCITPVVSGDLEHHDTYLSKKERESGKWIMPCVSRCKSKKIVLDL

[5] = system: recombinant E. coli cells that contain NdmABCD; test: Conversion by recombinant E. coli cells without NdmE; assay type: cell-based; conditions: absence of NdmE
[6] = system: E. coli cells expressing NdmABCDE; test: Conversion by recombinant E. coli cells with NdmE; assay type: cell-based
[7] = system: NdmC
[8] = system: cell extracts prepared from P. putida CBB5; test: NADH-dependent N-demethylase activity of CBB5 cell extracts; assay type: biochemical, Pseudomonas putida CBB5; conditions: 0.5 mM substrate, 7.2 mg mL^−1 protein
[9] = system: Pseudomonas putida CBB5; test: Resting cell degradation of caffeine in coffee extract, black tea extract and buffer by CBB5; assay type: cell-based
[10] = system: bacteria; conditions: 0.1% concentration; cited from earlier work

SMILES: Cn1cnc2[nH]c(=O)[nH]c(=O)c21 [7-Methylxanthine, 7-methylxanthine]
- product formed from paraxanthine [1]: 126.9 ± 6.40 µM
- product formed from paraxanthine ([1]; listed as 7-methylxanthine): 126.9 ± 6.4 µM
- N-demethylation product present ([1]; from paraxanthine, after 13 minutes): Approximately 39.9 μM
- Products identified [1]: xanthine
- Relative N-demethylase activity ([1]; substrate conc. 200 μM): 664.2 ± 61.1
- Relative N-demethylase activity ([1]; substrate conc. 500 μM): 455.7 ± 17.6
- N-demethylase activity ([2]; NdmA): inactive
- Km ([2]; NdmA-His6, 30° C., pH 7.5, ∞ where no activity): ∞
- N-demethylase activity ([3]; NdmB): no activity
- Km ([3]; NdmB-His6, 30° C., pH 7.5, ∞ where no activity): ∞
- activity of purified His6-NdmD [4]: no activity
- conversion by cells [5]: remained untouched
- conversion product [6]: xanthine
- N-demethylation by NdmC fraction [7]: sole substrate

SMILES: Cn1c(=O)c2c(ncn2C)n(C)c1=O [Caffeine, 1,3,7-trimethylxanthine]
- Products identified [1]: paraxanthine, and theobromine, and 7-methylxanthine, and xanthine
- Relative N-demethylase activity ([1]; substrate conc. 200 μM): 48.2 ± 4.8
- Relative N-demethylase activity ([1]; substrate conc. 500 μM): 30.8 ± 1.7
- Product ([2]; NdmA-His6): Theobromine
- Product ([2]; NdmA-His6, listed as caffeine): theobromine
- Product ([3]; NdmB-His6): Paraxanthine
- degradation rate compared with paraxanthine [8]: significantly slower
- time for caffeine degradation ([9]; 18 mM (highest concentration) caffeine in buffer solution): 2 h
- time for caffeine degradation ([9]; 18 mM caffeine in coffee extract): 6 h
- time for caffeine degradation ([9]; diluted black tea extract (1 mM caffeine)): ≤ 0.667 h
- time for caffeine disappearance ([9]; undiluted black tea extract (8 mM caffeine)): 40 min
- conversion by cells [5]: 7-methylxanthine from caffeine, but not xanthine
- conversion product [6]: xanthine
- N-demethylation by NdmC fraction [7]: not N-demethylated
- effect on protein synthesis in bacteria and yeast [10]: inhibits protein synthesis
